# Laboratory results as given in patent publication US10377770B2 (Novartis AG, priority 2015, dated 2019).
# Molecular target: C-Raf FL (full length CRAF with Y340E and Y341E activating mutations, co-expressed with h14-3-3 zeta) (Homo sapiens (Human), UniProt P04049, Y340E/Y341E)
# Assay: In vitro Raf activity determination, AlphaScreen p-MEK readout, c-Raf (C-Raf FL)
# Type: biochemical
# Settings: c-Raf approximately 4 nM, ATP 1 μM, pre-incubation 60 minutes, reaction 1 hour
# From the text: Sf9 cells co-expressing both proteins were lysed and subjected to immobilized nickel chromatography and eluted with Imidazole. A second column (StrepII binding column) was used and eluted with desthiobiotin. Protein Tags were removed using Prescission enzyme and the protein was further purified using a flowthrough step to remove tags.
# C-Raf TR refers to a truncated C-Raf protein, a Δ1-324 deletion mutant. C-Raf FL refers to the full-length C-Raf protein.
# Full length MEK1 with an inactivating K97R ATP binding site mutation is utilized as a RAF substrate. The MEK1 cDNA was subcloned with an N-terminal (his)6 tag into a vector for E. Coli expression. The MEK1 substrate was purified from E. Coli lysate by nickel affinity chromatography followed by anion exchange. The final MEK1 preparation was biotinylated (Pierce EZ-Link Sulfo-NHS-LC-Biotin) and concentrated.
# Assay Materials: Assay buffer is 50 mM Tris, pH 7.5, 15 mM MgCl2, 0.01% Bovine Serum Albumin (BSA) and 1 mM dithiothreitol (DTT); Stop buffer is 60 mM ethylenediaminetetraacetic acid (EDTA) and 0.01% Tween® 20; b-Raf (V600E), active; biotinylated Mek, kinase dead; Alpha Screen detection kit (available from PerkinElmer™, #6760617R); Anti phospho-MEK1/2 (available from Cell Signaling Technology, Inc. #9121); 384 well low volume assay plates (White Greiner® plates).
# Assay conditions: b-Raf (V600E) approximately 4 pM; c-Raf approximately 4 nM; biotinylated Mek, kinase dead approximately 10 nM; ATP 10 μM for BRAF (V600E) and 1 μM for CRAF; Pre-incubation time with compounds 60 minutes at room temperature; Reaction time 1 or 3 hours at room temperature.
# Assay protocol: Raf and biotinylated Mek (kinase dead) were combined at 2× final concentrations in assay buffer (50 mM Tris, pH 7.5, 15 mM MgCl2, 0.01% BSA and 1 mM DTT) and dispensed […] per well in assay plates (Greiner white 384 well assay plates #781207) containing […] of 40× of a Raf kinase inhibitor test compound diluted in 100% DMSO. The plate was incubated for 60 minutes at room temperature. The Raf kinase activity reaction was started by the addition of […] per well of 2×ATP diluted in assay buffer. After 3 hours (b-Raf(V600E)) or 1 hour (c-Raf). The reactions were stopped and the phosphorylated product was measured using a rabbit anti-p-MEK (Cell Signaling, #9121) antibody and the Alpha Screen IgG (ProteinA) detection Kit (PerkinElmer #6760617R), by the addition of […] to the well of a mixture of the antibody (1:2000 dilution) and detection beads (1:2000 dilution of both beads) in Stop/bead buffer (25 mM EDTA, 50 mM Tris, pH 7.5, 0.01% Tween20). The additions were carried out under dark conditions to protect the detection beads from light. A lid was placed on top of the plate and incubated for 1 hour at room temperature, after which the luminescence was read on a PerkinElmer Envision instrument.
# Chain of C-Raf FL (full length CRAF with Y340E and Y341E activating mutations, co-expressed with h14-3-3 zeta) (P04049 whole entry Y340E/Y341E): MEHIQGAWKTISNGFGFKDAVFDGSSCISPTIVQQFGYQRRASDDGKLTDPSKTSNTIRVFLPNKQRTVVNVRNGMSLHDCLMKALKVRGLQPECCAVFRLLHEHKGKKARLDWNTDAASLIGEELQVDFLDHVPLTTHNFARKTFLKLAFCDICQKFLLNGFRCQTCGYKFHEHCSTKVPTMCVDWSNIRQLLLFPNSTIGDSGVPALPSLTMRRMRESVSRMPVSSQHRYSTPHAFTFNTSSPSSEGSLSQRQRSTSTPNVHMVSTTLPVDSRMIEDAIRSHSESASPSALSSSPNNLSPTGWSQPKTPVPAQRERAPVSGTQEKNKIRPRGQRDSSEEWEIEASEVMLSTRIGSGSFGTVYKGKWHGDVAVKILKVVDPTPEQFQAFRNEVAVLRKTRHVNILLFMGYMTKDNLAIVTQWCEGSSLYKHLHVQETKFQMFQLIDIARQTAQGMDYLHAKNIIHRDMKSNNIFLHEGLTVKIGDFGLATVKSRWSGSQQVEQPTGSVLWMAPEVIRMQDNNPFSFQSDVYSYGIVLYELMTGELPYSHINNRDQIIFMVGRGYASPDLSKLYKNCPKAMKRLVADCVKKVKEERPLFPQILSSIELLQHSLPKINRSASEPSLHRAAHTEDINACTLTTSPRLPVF
# Chain of C-Raf FL (full length CRAF with Y340E and Y341E activating mutations, co-expressed with h14-3-3 zeta) (P63104 whole entry partner): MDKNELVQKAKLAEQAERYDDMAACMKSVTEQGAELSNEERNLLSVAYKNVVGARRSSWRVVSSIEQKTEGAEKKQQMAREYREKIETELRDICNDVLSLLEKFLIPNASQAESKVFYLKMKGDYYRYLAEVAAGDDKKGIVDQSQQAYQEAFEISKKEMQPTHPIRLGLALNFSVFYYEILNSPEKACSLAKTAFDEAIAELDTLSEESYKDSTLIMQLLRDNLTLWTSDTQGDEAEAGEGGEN
row,SMILES,IC50 [nM]
1,"Cc1ccc(NC(=O)c2ccnc(C(F)(F)F)c2)cc1-c1ccc2c(c1)N1CCOC[C@H]1C[C@H]2O (racemic) [Example 3, (rac)-(trans)-N-(3-(6-hydroxy-1,2,4,4a,5,6-hexahydro-[1,4]oxazino[4,3-a]quinolin-9-yl)-4-methylphenyl)-2-(trifluoromethyl)isonicotinamide]",0.031
2,"Cc1ccc(NC(=O)c2ccnc(C(C)(F)F)c2)cc1-c1ccc2c(c1)N1CCOCC1CC2O (racemic) [Example 6, (rac)-2-(1,1-difluoroethyl)-N-(3-(6-hydroxy-1,2,4,4a,5,6-hexahydro-[1,4]oxazino[4,3-a]quinolin-9-yl)-4-methylphenyl)isonicotinamide]",0.076
3,"Cc1ccc(NC(=O)c2ccnc(C(C)(C)F)c2)cc1-c1ccc2c(c1)N1CCOCC1CC2O (racemic) [Example 7, (rac)-2-(2-fluoropropan-2-yl)-N-(3-(6-hydroxy-1,2,4,4a,5,6-hexahydro-[1,4]oxazino[4,3-a]quinolin-9-yl)-4-methylphenyl)isonicotinamide]",0.033
4,"Cc1ccc(NC(=O)c2ccnc(C(C)(C)C#N)c2)cc1-c1ccc2c(c1)N1CCOCC1CC2O (racemic) [Example 8, (rac)-2-(2-cyanopropan-2-yl)-N-(3-(6-hydroxy-1,2,4,4a,5,6-hexahydro-[1,4]oxazino[4,3-a]quinolin-9-yl)-4-methylphenyl)isonicotinamide]",0.19
5,"Cc1ncc(NC(=O)c2cccc(C(F)(F)F)c2)cc1-c1ccc2c(c1)N1CCOCC1CC2O (racemic) [Example 9, (rac)-N-(5-(6-hydroxy-1,2,4,4a,5,6-hexahydro-[1,4]oxazino[4,3-a]quinolin-9-yl)-6-methylpyridin-3-yl)-3-(trifluoromethyl)benzamide]",0.051
6,"Cc1ccc(NC(=O)c2cnnc(C(F)(F)F)c2)cc1-c1ccc2c(c1)N1CCOCC1CC2O (racemic) [Example 10, (rac)-N-(3-(6-hydroxy-1,2,4,4a,5,6-hexahydro-[1,4]oxazino[4,3-a]quinolin-9-yl)-4-methylphenyl)-6-(trifluoromethyl)pyridazine-4-carboxamide]",0.036
7,"Cc1ncc(NC(=O)c2ccnc(C(C)(F)F)c2)cc1-c1ccc2c(c1)N1CCOCC1CC2O (racemic) [Example 11, (rac)-2-(1,1-difluoroethyl)-N-(5-(6-hydroxy-1,2,4,4a,5,6-hexahydro-[1,4]oxazino[4,3-a]quinolin-9-yl)-6-methylpyridin-3-yl)isonicotinamide]",0.0098
8,"Cc1ccc(NC(=O)c2ccnc(C(C)(F)F)c2)cc1-c1ccc2c(c1)N1CCOCC1CC2O (racemic) [Example 16, (rac)-2-(1,1-difluoroethyl)-N-(3-(6-hydroxy-1,2,4,4a,5,6-hexahydro-[1,4]oxazino[4,3-a]quinolin-9-yl)-4-methylphenyl)isonicotinamide]",0.055
9,"Cc1ccc(NC(=O)c2ccnc(C(C)(C)F)c2)cc1-c1ccc2c(c1)N1CCOCC1CC2O (racemic) [Example 17, (rac)-2-(2-fluoropropan-2-yl)-N-(3-(6-hydroxy-1,2,4,4a,5,6-hexahydro-[1,4]oxazino[4,3-a]quinolin-9-yl)-4-methylphenyl)isonicotinamide]",0.046
10,"Cc1ccc(NC(=O)c2ccnc(C(F)(F)F)c2)cc1-c1ccc2c(c1)N1CCOCC1CC2 (racemic) [Example 21, (rac)-N-(3-(1,2,4,4a,5,6-hexahydro-[1,4]oxazino[4,3-a]quinolin-9-yl)-4-methylphenyl)-2-(trifluoromethyl)isonicotinamide]",0.0012
11,"Cc1ccc(NC(=O)c2ccnc(C(F)(F)F)c2)cc1-c1ccc2c(c1)N1CCOCC1CC2(C)O (racemic) [Example 22, (rac)-N-(3-(6-hydroxy-6-methyl-1,2,4,4a,5,6-hexahydro-[1,4]oxazino[4,3-a]quinolin-9-yl)-4-methylphenyl)-2-(trifluoromethyl)isonicotinamide]",0.23
12,Cc1ccc(NC(=O)c2ccnc(C(C)(F)F)c2)cc1-c1ccc2c(c1)N1CCOCC1CC2(C)O (racemic) [Example 23],0.046
